Laboratory results published in US4542021A, “Antitumor compositions for non-injection administration” (Yamasa Shoyu Kabushiki Kaisha, priority 1978, dated 1985).
Structures can show the parent of a compound that is named as a salt. Where two headings read alike, the source gives them in different places.

Key:
L1210 leukemia = assay: Therapeutic test on L1210 leukemia (oral, once a day); format: in vivo, BDF1 mice; conditions: Mus musculus, read-out: % ILS (increase in life span); for ILS at 50 mg/kg/day / ILS at 6.25 mg/kg/day / ILS at 12.5 mg/kg/day / ILS at 25 mg/kg/day: L1210
Protocol: The L1210 leukemic cell suspension (1×10^5 cells/0.2 ml) was implanted intraperitoneally in BDF1 mice (males, 18 to 22 g, females, 16 to 20 g) (7 mice per group). From 24 hours after the implantation to the 5th day thereafter, the predetermined doses of the compounds to be tested were orally administered to the mice consecutively once a day. The compounds to be tested were dissolved or suspended in a phosphate-bufferedsalt solution (PBS) containing 0.5% carboxymethylcellulose, and given at a dose rate of 0.1 ml per 10 g of each mouse's body weight. To a control group, only the same solvent as used for the dissolution of the compounds to be tested was administered in the same way. The mean survival times (MST) for each group were calculated, and the corresponding increase in life span (%ILS) was obtained in accordance with the following formula, the results of which are shown in Table 1. [formula]

B16 melanoma = assay: Effectiveness against B16 melanoma (oral, 3 times a week); format: in vivo, BDF1 mice
Protocol: The B16 melanoma cells (1×10^6 cells) were implanted to the right side-abdominal hypoderms of BDF1 mice (male, 18 to 22 g). From the 13th day after the implantation to death the compounds to be tested were administered orally 3 times a week. The compounds to be tested were dissolved in a phosphate-buffered salt solution (PBS) containing 0.5% carboxymethyl-cellulose to a suitable concentration, and given to the mice at a dose rate of 0.1 ml per 10 g of each mouse's body weight. The increases in life span (%ILS) were calculated in accordance with the same formula as described in Test Example 1.

L1210 leukemic cells [1] = assay: Experimental tumor proliferation model in the lymph nodes, once a day for 6 days; format: in vivo, BDF1 mice; conditions: ip
Protocol: (§1) L1210 leukemic cells (1×10^6 cells/0.05 ml) were implanted to the right inner-thigh hypoderms of BDF1 mice (males, 18 to 22 g). From one day after the transplantation, the compounds to be tested were administered intraperitoneally or orally to the mice once a day consecutively for 6 days. The compounds being tested were dissolved in a phosphate-buffered salt solution (PBS) containing 0.5% carboxymethylcellulose to a suitable concentration, and administered to the mice at a dose rate of 0.1 ml per 10 g of each mouse's body weight. The increases in life span (%ILS) were calculated similarly as in Test Example 1.

L1210 leukemic cells [2] = assay: Experimental tumor proliferation model in the lymph nodes, single administration on sixth day; format: in vivo, BDF1 mice; conditions: ip, once on sixth day
Protocol: as §1
Furthermore, in a similar manner, each of the test compounds was administered only once on the sixth day after implantation.

[3] = Acute toxicity test, oral (Test Example 5); design: species or system ICR-JCL mice; conditions: mouse, in vivo, neutralized ester, male mice, 14th day
Protocol: An ara-CMP ester was neutralized and dissolved in saline containing 0.5% of carboxymethylcellulose, and the resulting solution was orally administered to ICR-JCL mice (males, 24 to 26 g) in a dose of 0.2 ml per 10 g of each mouse's body weight.

[4] = L1210, 720 h, oral, 100 mg/kg/day, > means some mice survived the test period (30 days)
[5] = L1210, 720 h, oral, 200 mg/kg/day, > means some mice survived the test period (30 days)
[6] = L1210, 720 h, oral, 400 mg/kg/day, > means some mice survived the test period (30 days)

Nc1ccn([C@@H]2O[C@H](CO)[C@@H](O)[C@@H]2O)c(=O)n1 [ara-C (hydrochloride), 1-β-D-arabinofuranosyl cytosine, reference compound]
ILS at 100 mg/kg/day (L1210 leukemia; [4]): 22%
ILS at 200 mg/kg/day (L1210 leukemia; [5]): 34%
ILS at 400 mg/kg/day (L1210 leukemia; [6]): 67%
Increase in life span (% ILS) (B16 melanoma; 100 mg/kg): 22%
Mean survival time (MST ± SE) (B16 melanoma; 100 mg/kg): 26.8 ± 1.50
Increase in life span (% ILS) (B16 melanoma; 200 mg/kg): -5%
Mean survival time (MST ± SE) (B16 melanoma; 200 mg/kg): 21.0 ± 1.76
Increase in life span (% ILS) (B16 melanoma; 400 mg/kg): 1%
Mean survival time (MST ± SE) (B16 melanoma; 400 mg/kg): 22.2 ± 2.82
Increase in life span (% ILS) (L1210 leukemic cells [1]; 50 mg/kg/day): 101%
Mean survival time (MST ± SE) (L1210 leukemic cells [1]; 50 mg/kg/day): 13.9 ± 0.59
Increase in life span (% ILS) (L1210 leukemic cells [1]; 100 mg/kg/day): 110%
Mean survival time (MST ± SE) (L1210 leukemic cells [1]; 100 mg/kg/day): 14.5 ± 0.62
Increase in life span (% ILS) (L1210 leukemic cells [2]; 250 mg/kg): 36%
Mean survival time (MST ± SE) (L1210 leukemic cells [2]; 250 mg/kg): 9.9 ± 0.13
Increase in life span (% ILS) (L1210 leukemic cells [2]; 500 mg/kg): 49%
Mean survival time (MST ± SE) (L1210 leukemic cells [2]; 500 mg/kg): 10.9 ± 0.23

Nc1ccn([C@@H]2O[C@H](COP(=O)(O)O)[C@@H](O)[C@@H]2O)c(=O)n1 [ara-CMP, arabinofuranosylcytosine-5'-phosphate, reference compound]
ILS at 100 mg/kg/day (L1210 leukemia; [4]): 21%
ILS at 200 mg/kg/day (L1210 leukemia; [5]): 57%
ILS at 400 mg/kg/day (L1210 leukemia; [6]): 73%
ILS at 50 mg/kg/day (L1210 leukemia; oral): 8%

CCCCCCCCCCCCCCCCCCCCOP(=O)(O)OC[C@H]1O[C@@H](n2ccc(N)nc2=O)[C@@H](O)[C@@H]1O [C20-ara-CMP ester, ara-CMP-eicosyl ester]
ILS at 100 mg/kg/day (L1210 leukemia; [4]): 126%
ILS at 200 mg/kg/day (L1210 leukemia; [5]): > 199%
ILS at 6.25 mg/kg/day (L1210 leukemia; oral): 19%
ILS at 12.5 mg/kg/day (L1210 leukemia; oral): 39%
ILS at 25 mg/kg/day (L1210 leukemia; oral): 60%
ILS at 50 mg/kg/day (L1210 leukemia; oral): 90%
LD50 at 336 h [3]: 2720 mg/kg

COP(=O)(O)OC[C@H]1O[C@@H](n2ccc(N)nc2=O)[C@@H](O)[C@@H]1O [ara-CMP methyl ester, reference compound]
ILS at 100 mg/kg/day (L1210 leukemia; L1210, po, 720 h): 13%
ILS at 200 mg/kg/day (L1210 leukemia; L1210, po, 720 h): 48%
ILS at 400 mg/kg/day (L1210 leukemia; L1210, po, 720 h): 65%

O=c1[nH]cc(F)c(=O)[nH]1 [5-fluorouracil]
Increase in life span (% ILS) (B16 melanoma; 25 mg/kg): 0%
Mean survival time (MST ± SE) (B16 melanoma; 25 mg/kg): 22.0 ± 1.45
Mean survival time (MST ± SE) (B16 melanoma; 50 mg/kg): 25.0 ± 2.26
Increase in life span (% ILS) (B16 melanoma; 50 mg/kg, * level of significance at 0.05% or lower): 14%
Increase in life span (% ILS) (B16 melanoma; 100 mg/kg): -11%
Mean survival time (MST ± SE) (B16 melanoma; 100 mg/kg): 19.6 ± 0.98

CCCCCCCCCCCCCCCOP(=O)(O)OC[C@H]1O[C@@H](n2ccc(N)nc2=O)[C@@H](O)[C@@H]1O [C15-ara-CMP ester, ara-CMP-pentadecyl ester]
ILS at 100 mg/kg/day (L1210 leukemia; [4]): 95%
ILS at 200 mg/kg/day (L1210 leukemia; [5]): 135%
ILS at 50 mg/kg/day (L1210 leukemia; oral): 70%

CCCCCCCCCCOP(=O)(O)OC[C@H]1O[C@@H](n2ccc(N)nc2=O)[C@@H](O)[C@@H]1O [ara-CMP decyl ester, reference compound]
ILS at 100 mg/kg/day (L1210 leukemia; [4]): 8%
ILS at 200 mg/kg/day (L1210 leukemia; [5]): 36%
ILS at 400 mg/kg/day (L1210 leukemia; [6]): 39%
ILS at 25 mg/kg/day (L1210 leukemia; oral): 0%
ILS at 50 mg/kg/day (L1210 leukemia; oral): 4%

CCCCCCCCCCCCCCCCCOP(=O)(O)OC[C@H]1O[C@@H](n2ccc(N)nc2=O)[C@@H](O)[C@@H]1O [C17-ara-CMP ester, ara-CMP-heptadecyl ester]
ILS at 100 mg/kg/day (L1210 leukemia; [4]): 123%
ILS at 200 mg/kg/day (L1210 leukemia; [5]): > 154%
ILS at 400 mg/kg/day (L1210 leukemia; [6]): -15%
ILS at 6.25 mg/kg/day (L1210 leukemia; oral): 11%
ILS at 12.5 mg/kg/day (L1210 leukemia; oral): 32%
ILS at 25 mg/kg/day (L1210 leukemia; oral): 52%
ILS at 50 mg/kg/day (L1210 leukemia; oral): 87%
